Here are results for 27 compounds from US5563142A, “Diaromatic substituted compounds as anti-HIV-1 agents” (The Upjohn Company, priority 1994, dated 1996).

The first assay relates to HIV in primary human peripheral blood lymphocytes. Description: Primary PBL assay: inhibition of viral replication (p24 & RNA). Format: cell-based. As to conditions: primary human lymphocytes infected with HIV, days three and four, read-out: PBL INHIBITION OF VIRAL REPLICATION (p24 & RNA) ED50. The procedure: ^3 The utility of the compounds of the invention is further
infection in primary peripheral blood lymphocytes (primary PBL assay). Th
primary PBL assay offers the following advantages:
(a) The assays are performed with primary human lymphocytes. Thereby,
undesired testing of transformed cell lines is avoided in which host cell
and virus may have undergone processes of mutual adaptation. Performance
of cell culture in serum containing media closely mimics the in vivo
situation. (b) The primary PBL assay distinguishes between true antiviral
effect which is due to the drug and cytostatic/cytotoxic reactions. (c)
Viral replication is precisely followed by kinetic measurement of viral
nucleic acids and proteins. (d) Nucleic acids (total HIVRNA intra and
extracellular) and protein (secreted p24) are measured in parallel which
permits one to differentiate between the compound's effect on virus
replication and on the expression of viral proteins. This leads to
additional information regarding the efficacy of the test compound. (e)
Tolerance of the cell culture against low amounts of organic solvents als
permits the investigation of hydrophobic substances. (f) The dose of the
drug causing half maximal suppression of virus replication is determined.
(g) The screening system is standardized and automated to a high degree.
The primary PBL assay uses the following procedure:
Effects of the compounds of the invention on cell proliferation are determined by lymphocyte proliferation assays. Starting with a 100 micromolar solution, the compound is serially diluted 10 fold. One tenth of the concentration of a compound causing half maximal inhibition of cellular proliferation is employed for all subsequent testing.
Peripheral human lymphocytes are isolated by density gradient centrifugation. After stimulation by mitogen the cells are infected with a standardized preparation of HIV. Subsequently, the infected cells are cultured in the presence of the drug for four days. Individual cultures are established to measure viral replication three and four days following infection. Untreated cells and AZT-treated cells are included as controls in parallel with the drugs under investigation.
The amount of viral core protein p24 synthesized and release by the infected cells is determined in the supernatant by the capture-ELISA technique on days three and four. By comparing with a standard preparation, the amount of protein produced by the virus infected cells is quantified.
The total amount of viral RNA synthesized by the infected lymphocytes is determined by a special nucleic acid hybridization on days three and four of culture. By including a standard preparation of HIV-RNA the amount of synthesized RNA is quantified.
In addition, viability of HIV-infected cells is determined in parallel with assays for viral p24 and RNA. In order to evaluate the half maximal antiviral effect of the drug, a concentration dependency of the drug action is measured.
Numerous examples of the compounds of the invention are assayed according to this procedure. The anti-HIV activity, as measured by the inhibition of the release of core p24 protein in HIV infected human lymphocytes, is used to calculate ED50 -antiviral (the concentration required to give a 50% reduction in p24 synthesis).
Regarding `CC(C)Nc1cccnc1N1CCN(C(=O)c2nc3ccccc3[nH]2)CC1` [Example 62], the EC50 lay in the range of 1 to 10 µM.

Another assay concerns the target T1, viral reverse transcriptase (Human immunodeficiency virus type 1 group M subtype B, UniProt P04585).
T1 construct: Viral reverse transcriptase is found in extracts from bacterial clones; made in house; host or cells: Escherichia coli (extracts of bacterial clones, by the procedure of Larder et al., EMBO J. 6:3133-3137, 1987)
The experiment in a line: Viral reverse transcriptase inhibition, cell free assay. Format: biochemical, human immunodeficiency virus (HIV-1). As to conditions: 100 μM; poly rC or poly rG template. The source says:
The utility of the diaromatic substituted piperazines (III), the anti-AIDS piperazines (IV) and the indoles (V) of this invention can be determined by their ability to inhibit viral reverse transcriptase, an enzyme essential for human immunodeficiency virus replication. This enzyme has characteristics which differentiate it from other known cellular polymerases and it is a unique enzyme which is not found in uninfected cells. Viral reverse transcriptase is found in extracts from bacterial clones prepared according to the procedure described in AIDS Virus Reverse Transcriptase defined by high level expression in Escherichia coli, EMBO J. 6:3133-3137 (1987). Inhibition of this enzyme is determined in a cell free assay which measures the level of radioactive precursors incorporated into DNA. Extracts prepared according to the procedure of Science, 1125-1129 (1981) are incubated in a mixture of inhibitor, 20 mM dithiothreitol, 60 mM sodium chloride, 0.05% NP-40, 10 mM magnesium chloride, 50 mM Tris pH 8.3, 10 μM [^35 S]-labeled deoxynuleoside-5'-triphosphate, 10 μg/ml RNA template (poly rC or poly rG) and 5 μg/ml DNA primer (oligo dG or oligo dT) for 30 minutes at 37° C. Incorporation of radio-labeled percursor is determined by spotting aliquots of the reaction mixture on DE81 paper, washing the papers to remove unincorporated percursor, drying and determining counts. The results (IC50 means the concentration, in μM of drug, required to inhibit the reverse transcriptase activity to the extent of 50%) of various assay(s) are combined and reported as % inhibition and IC50 (calculated).
^1 Viral reverse transcriptase is found in extracts from bacterial
clones prepared according to the procedure described by Larder, B.,
Purifoy D., Powell, K. and Darby, G., AIDS virus reverse transcriptase
defined by high level expression in Escherichia coli., EMBO J. 6,
3133-3137 (1987). Inhibition of this enzyme is determined in a cell free
assay which measures the level of radioactive precursors incorporated int
DNA. Extracts prepared according to the procedure of Kleid, D. G., et
al., Science, 1125-1129 (1981) are incubated in a mixture of inhibitor, 2
mM dithiothreitol, 60 mM sodium chloride, 0.05% NP40, 10 mM magnesium
chloride, 50 mM Tris pH 8.3, 10 μM [^35 Slabeled
deoxynucleoside5triphosphate, 10 μg/ml RNA template (poly rC or poly
rG) and 5 μg/ml DNA primer (oligo dG or oligo dT) for 15 minutes at
37°. Incorporation of radio labeled precursor is determined by
harvesting the trichloroacetic acid precipitated reaction mixtures on
glass fiber filters, drying, and determining counts. The results of
various assays are combined and reported as % inhibition at a 100 μM
Regarding `CC(C)Nc1cccnc1N1CCN(C(=O)c2nc3ccccc3[nH]2)CC1` [Example 62], the “RT % INHIBITION (100 μM)” value was 64-78%.

Consider `CC(C)Nc1cccnc1N1CCN(C(=O)c2cc3cc(OCC(=O)O)ccc3[nH]2)CC1` [Example 68, 1-[5-(Carboxymethoxy)indolyl-2-carbonyl]-4-[3-(1-methylethylamino)-2-pyridinyl]piperazine], for which the “RT % INHIBITION (100 μM)” value is on record as 78-95%.

Still in this assay, the particulars now being: read-out: RT % INHIBITION (100 μM), 100 μM; poly rC or poly rG template.
In the case of `CC(C)Nc1cccnc1N1CCN(C(=O)c2cc3cc(OCC(=O)OCc4ccccc4)ccc3[nH]2)CC1` [Example 67, 1-[5-(Benzyloxycarbonylmethoxy)indolyl-2-carbonyl]-4-[3-(1-methylethylamino)-2-pyridinyl]piperazine], the inhibition at 100 µM was 60 to 84%.

For `CC(C)(C)Nc1ccnnc1N1CCN(C(=O)c2cc3cc(O)ccc3[nH]2)CC1` [Example 120, 1-[5-Hydroxyindolyl-2-carbonyl]-4-[4-(1,1-dimethylethylamino)-2-pyridazinyl]piperazine], the inhibition at 100 µM lay within 87 to 90%.

In the case of `CC(C)Nc1cccnc1N(C)C1CCN(C(=O)c2cc3ccccc3[nH]2)CC1` [Example 131, 1-(Indolyl-2-carbonyl)-4-(N-methyl-N-(3-(1-methylethylamino)-2-pyridinyl)amino)piperidine], the inhibition at 100 µM is 85 to 97%.

`CC(C)(C)Nc1ccnnc1N1CCN(C(=O)c2cc3cc(OCc4ccccc4)ccc3[nH]2)CC1` [Example 119, 1-[5-Benzyloxyindolyl-2-carbonyl]-4-[4-(1,1-dimethylethylamino)-2-pyridazinyl]piperazine]: the inhibition at 100 µM lay in the range of 53 to 58%.

Consider `CC(C)Nc1cccnc1N1CCN(C(=O)c2cccc3cc[nH]c23)CC1` [Example 128, 1-[Indolyl-7-carbonyl]-4-[3-(1-methylethylamino)-2-pyridinyl]-piperazine], for which the inhibition at 100 µM fell in the range of 89 to 98%.

On to `CC(C)Nc1cccnc1N1CCN(C(=O)c2cccc3c2NCC3)CC1` [Example 129, 1-[2,3-Didehydroindolyl-7-carbonyl]-4-[3-(1-methylethylamino)-2-pyridinyl]piperazine], for which the inhibition at 100 µM is 68 to 84%.

Turning to `CCC(CC)Nc1cccnc1N1CCN(C(=O)c2cc3ccccc3[nH]2)CC1` [Example 100], the inhibition at 100 µM lay in the range of 81 to 82%.

For `CC(C)Nc1cccnc1N1CCN(C(=O)c2cc3c(ccc4ccccc43)[nH]2)CC1` [Example 122, 1-[Benz[e]indolyl-2-carbonyl]-4-[3-(1-methylethylamino)-2-pyridinyl]piperazine], the inhibition at 100 µM came to 84%.

Regarding `CCNc1cccnc1N(C)CCCCCCN(C)C(=O)c1cc2ccccc2[nH]1` [Example 112], the inhibition at 100 µM was 74 to 82%.

As for `CCNc1cccnc1N1CCN(C(=O)c2cccc3c2NCC3)CC1` [Example 130], the inhibition at 100 µM is 48 to 59%.

With `CC(C)Nc1cccnc1N1CCN(C(=O)c2cc3cccnc3[nH]2)CC1` [Example 109], the inhibition at 100 µM was 56 to 82%.

For `O=C(c1cc2ccccc2[nH]1)N1CCN(c2ncccc2NCCF)CC1` [Example 117, 1-[Indolyl-2-carbonyl]-4-[3(2-fluoroethylamino)-2-pyridinyl]piperazine], the inhibition at 100 µM worked out at 92%.

With `CCNc1cccnc1N(C)CCCN(C)C(=O)c1cc2ccccc2[nH]1` [Example 111], the inhibition at 100 µM lay within 86 to 92%.

Consider `CC(C)(C)Nc1nccnc1N1CCN(C(=O)c2cc3cc(F)ccc3[nH]2)CC1` [Example 51, 1-[5-Fluoroindolyl-2-carbonyl]-4-[3-(1,1-dimethylethylamino)-2-pyrazinyl]piperazine], for which the inhibition at 100 µM was determined as 55%.

With `CC(C)Nc1cccnc1N1CCN(C(=O)c2cc3cc(Br)ccc3[nH]2)CC1` [Example 93, 1-[5-Bromoindolyl-2-carbonyl]-4-[3-(1-methylethylamino)-2-pyridinyl]piperazine], the inhibition at 100 µM turned out to be 87%.

Consider `CC(C)Nc1cccnc1N1CCN(C(=O)c2cc3ccc4ccccc4c3[nH]2)CC1` [Example 121, 1-[Benz[g]indolyl-2-carbonyl]-4-[3-(1-methylethylamino)-2-pyridinyl]piperazine], for which the inhibition at 100 µM fell in the range of 64 to 70%.

On to `CCNc1cccnc1N1CCN(C(=O)c2cc3cc(OCc4ccccc4)ccc3[nH]2)CC1` [Example 35, 1-[5-Benzyloxyindolyl-2-carbonyl]-4-[3-(ethylamino)-2-pyridinyl]piperazine], for which the inhibition at 100 µM fell in the range of 57 to 70%.

In the case of `CC(C)Nc1cccnc1N1CCN(C(=O)c2cc3ccc(C=O)cc3[nH]2)CC1` [Example 113], the inhibition at 100 µM was 92 to 96%.

With `CC(C)Nc1cccnc1N(C)CCN(C)C(=O)c1cc2cc(F)ccc2[nH]1` [Example 108, N,N'-Dimethyl-N-(5-fluoroindolyl-2-carbonyl)-N'-(3-(1-methylethylamino)-2-pyridyl)ethylenediamine], the inhibition at 100 µM lay in the range of 77 to 89%.

Consider `COc1c(C)cc(C(=O)N2CCN(c3ncccc3NC(C)C)CC2)cc1C` [Example 78, 1-[3,5-Dimethyl-4-methoxybenzoyl]-4-[3-(1-methylethylamino)-2-pyridinyl]piperazine], for which the inhibition at 100 µM stood at 74%.

In the case of `O=C(c1cc2ccccc2[nH]1)N1CCN(c2nccnc2NC2CC2)CC1` [Example 57, 1-(Indolyl-2-carbonyl)-4-(3-cyclopropylamino-2-pyrazinyl)piperazine], the inhibition at 100 µM lay in the range of 52 to 65%.

As for `CC(C)Nc1cccnc1OCCOC(=O)c1cc2ccccc2[nH]1` [Example 59, 2-(2-(Indolyl-2-carboxy)ethoxy)-3-(1-methylethylamino)pyridine], the inhibition at 100 µM lay in the range of 61 to 75%.

On to `COc1ccc2[nH]c(C(=O)N(C)CCN(C)c3ncccc3NC(C)C)cc2c1` [Example 107, N,N'-Dimethyl-N-(5-methoxyindolyl-2-carbonyl)-N'-[3-(1-methylethylamino)-2-pyridyl]ethylenediamine], for which the inhibition at 100 µM lay within 77 to 87%.

In the case of `CCNc1cccnc1N(C)CCN(C)C(=O)c1cc2ccccc2[nH]1` [Example 123, N,N'-Dimethyl-N-(indolyl-2-carbonyl)-N'-(3-ethylamino-2-pyridyl)ethylenediamine], the inhibition at 100 µM was 47 to 60%.

In the case of `CCNc1cccnc1N1CCN(Cc2cc3cc(OC)ccc3[nH]2)CC1` [Example 80], the inhibition at 100 µM was in the range of 61 to 70%.
